What was measured:
BMDCs = assay: Cytokine release (type I IFN bioassay) from LPS-treated BMDCs pretreated with peptide; assay type: cell-based
STING [1] = target: T1, STING (Homo sapiens, UniProt Q86WV6); assay: Pulldown of HA-tagged STING C-terminal domain with biotinylated INF ISD peptide and streptavidin coated beads, immunoblot; assay type: binding
T1 construct: the C-terminal domain of STING was expressed with a HA-tag in HEK293 cells; expressed in transfected cells; host or cells: HEK293

STING [2] = assay: as above; assay type: binding

T1 sequence (Q86WV6 162-379): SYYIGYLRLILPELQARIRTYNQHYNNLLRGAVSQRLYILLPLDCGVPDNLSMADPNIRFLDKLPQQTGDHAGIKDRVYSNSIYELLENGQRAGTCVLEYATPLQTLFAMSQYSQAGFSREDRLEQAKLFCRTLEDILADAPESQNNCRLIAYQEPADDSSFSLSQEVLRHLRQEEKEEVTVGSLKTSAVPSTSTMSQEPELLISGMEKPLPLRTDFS

With “GLFGAIAGFIENGWEGCGGEKEKEK [INF ISD peptide]” the “amounts of cytokines released by cells treated with LPS (FIG. 9)” value (BMDCs; BMDCs treated with LPS for 16 hours, pretreated with peptide, supernatants analyzed for type I IFN using bioassay) was “significantly lower amounts of cytokines”, the “release of cytokines including pro-inflammatory cytokines such as TNFalpha and IL-6” value (BMDCs; pretreatment of cells with peptide, LPS (Example 3)) was “decrease in the release of cytokines” and the “pulldown of STING deletion mutant DN5 (162-N)” value (STING [1]) was “readily pulled down”. For the same sequence, the “pulldown of wt STING” value (STING [2]) was “readily pulled down”.
